Source: patent publication US7625948B2, “Ester compound and medicinal use thereof” (Japan Tobacco Inc., priority 2002, dated 2009)
pIC50: −log10 of the molar value.

How the values were obtained:
Syrian hamsters = experiment: Test Example 3: olive oil-loading test (inhibition of fat absorption, plasma TG); assay type: in vivo; settings: Mesocricetus auratus, po; 3 mg/kg p.o.; plasma TG 4 hours after olive oil; read-out: Test Example 3 Inhibition of fat absorption after olive oil-loading in Hamster Inhibition rate (%)
Procedure: Syrian hamsters (9-11 weeks of age) under non-fasted conditions were used in the test. Blood was collected previously from orbital venous plexus, and a sample was suspended in 0.5% methyl cellulose (vehicle) and the suspension was forced to be administered orally to the hamsters at a dose of 0.3, 1, 3 or 10 mg/2 mL/kg. Only vehicle in the same volume was administered to the control group. Olive oil (2 mL/kg) was forced to be administered orally 30 minutes after the administration of the sample, and blood was collected from orbital venous plexus 4 hours later. Plasma was recovered from the blood, and the amount of triglyceride (TG) in the plasma was determined by automatic analyzer (Hitachi Co.). The data was expressed in terms of ΔTG(mg/dL)=the value at 4th hr minus the value before administration. Inhibition rate (%) was calculated from the data obtained on the basis of the following equation.
Inhibition rate (%)=100×(1 minus ΔTG of sample group/ΔTG of control group).

HepG2 cells = experiment: Test Example 2: inhibition of apolipoprotein B secretion from HepG2 cells, ELISA (also used for metabolites in Test Example 8); assay type: cell-based; settings: Homo sapiens, 24 hours, apo B in supernatant by ELISA, read-out: Test Example 2 Inhibition of apo B secretion IC50
How it was run: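 HepG2 cells cultured 24 h, then exposed 24 h to compounds or metabolites in medium with 0.5% DMSO. Secreted apo B in supernatant quantified by sandwich ELISA (HRP, ABTS, 405 nm) against purified human apo B standard; % inhibition vs DMSO group, IC50 derived.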

[1] = molecular target: T1, Microsomal triglyceride transfer protein (MTP) from bovine liver (Bos taurus, UniProt P55156); experiment: Test Example 1: inhibition of interliposomal triglyceride (TG) transfer activity by MTP (also used for metabolites in Test Example 8); assay type: biochemical; settings: MTP-mediated 14C-triolein transfer between liposomes, 37° C., one hour; read-out: Test Example 1 MTP inhibition IC50
T1 construct: from tissue; host or cells: bovine liver
T1 sequence (P55156 12-887): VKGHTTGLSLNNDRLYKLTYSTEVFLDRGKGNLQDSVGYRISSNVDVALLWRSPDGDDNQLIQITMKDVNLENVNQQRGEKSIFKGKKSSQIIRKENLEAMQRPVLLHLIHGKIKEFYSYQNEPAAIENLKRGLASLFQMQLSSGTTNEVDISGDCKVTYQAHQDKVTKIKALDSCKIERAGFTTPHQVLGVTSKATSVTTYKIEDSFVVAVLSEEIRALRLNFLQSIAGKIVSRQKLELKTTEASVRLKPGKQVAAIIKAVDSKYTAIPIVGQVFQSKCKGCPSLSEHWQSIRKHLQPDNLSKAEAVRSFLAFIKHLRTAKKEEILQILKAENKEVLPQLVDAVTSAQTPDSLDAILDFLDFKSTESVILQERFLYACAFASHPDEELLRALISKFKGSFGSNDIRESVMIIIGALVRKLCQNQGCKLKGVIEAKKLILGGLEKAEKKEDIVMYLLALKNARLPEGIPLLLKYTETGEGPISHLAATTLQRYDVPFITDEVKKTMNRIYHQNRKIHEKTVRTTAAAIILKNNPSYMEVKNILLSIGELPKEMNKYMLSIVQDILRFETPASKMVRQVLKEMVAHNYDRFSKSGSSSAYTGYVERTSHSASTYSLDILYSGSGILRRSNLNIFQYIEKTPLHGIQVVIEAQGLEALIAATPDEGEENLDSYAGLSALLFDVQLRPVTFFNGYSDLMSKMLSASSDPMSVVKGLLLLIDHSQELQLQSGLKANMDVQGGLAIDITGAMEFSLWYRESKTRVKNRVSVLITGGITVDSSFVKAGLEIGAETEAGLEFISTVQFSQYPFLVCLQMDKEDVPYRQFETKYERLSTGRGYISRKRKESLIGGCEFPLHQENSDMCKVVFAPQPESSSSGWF
T1 sequence (P05307 21-510 partner): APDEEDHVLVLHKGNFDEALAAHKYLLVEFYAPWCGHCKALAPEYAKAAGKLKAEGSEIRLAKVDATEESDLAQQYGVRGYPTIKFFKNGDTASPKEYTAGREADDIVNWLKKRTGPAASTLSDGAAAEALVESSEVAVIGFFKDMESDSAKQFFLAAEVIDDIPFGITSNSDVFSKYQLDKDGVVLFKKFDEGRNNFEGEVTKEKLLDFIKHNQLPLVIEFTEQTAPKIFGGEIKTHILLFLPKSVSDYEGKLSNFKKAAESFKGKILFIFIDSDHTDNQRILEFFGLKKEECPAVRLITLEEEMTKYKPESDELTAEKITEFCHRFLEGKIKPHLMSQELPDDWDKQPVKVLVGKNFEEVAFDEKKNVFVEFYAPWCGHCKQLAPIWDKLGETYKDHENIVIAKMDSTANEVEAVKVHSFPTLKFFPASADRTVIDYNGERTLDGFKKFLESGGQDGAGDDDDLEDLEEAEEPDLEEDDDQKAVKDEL
Procedure: Inhibition of Interliposomal Triglyceride (TG) Transfer Activity by MTP
Microsomal triglyceride transfer protein (MTP) from bovine liver was partially purified in such a way described below. A buffer (50 mM Tris, 250 mM sucrose, 1 mM EDTA, 0.02% NaN3 (pH 7.4)) for making a homogenate preparation was added to bovine liver, and the mixture was homogenated under ice-cooling, then centrifuged at 10,000×g (4° C., 30 minutes). The supernatant was adjusted to pH 5.1 with hydrochloric acid, and stirred for 30 minutes. The solution was further centrifuged at 10,000×g (4° C., 30 minutes), and 1 mM Tris buffer was added to the precipitated residue, and the mixture was adjusted to pH 8.6 with sodium hydroxide. After addition of 2.7M ammonium sulfate solution, the mixture was stirred for 30 minutes, then centrifuged at 10,000×g (4° C., 40 minutes). The resulting supernatant was served as a crude extraction fraction of MTP and stored at −80° C. under freezing. In its practical use, the crude extraction fraction of MTP was purified by column chromatography on diethylaminoethyl (DEAE) Sepharose using FPLC (Fast Performance Liquid Chromatography) system, and the purified MTP was used for the test.
Small unilamellar-vesicle (SUV) liposome (donor, 0.25 mol % triolein, 5 mol % cardiolipin) labeled with ^14C-triolein and non-labeled SUV liposome (acceptor, 0.25 mol % triolein) were prepared. A fixed amount of donor and acceptor, and MTP were mixed with a sample dissolved in DMSO or with DMSO. The mixture was incubated in a 15 mM Tris hydrochloride buffer (pH 7.4) containing 40 mM sodium chloride, 1 mM EDTA (ethylenediaminetetraacetic acid), 0.02% NaN3 and 0.5% bovine serum albumin at 37° C. for one hour. After completion of the incubation, a suspension of DEAE cellulose (50% v/v) in 15 mM Tris hydrochloride buffer (pH 7.4) was added to the above solution, and the mixture was centrifuged to separate the donor and the acceptor. The radioactivity in the acceptor was measured by liquid scintillation counter. The value obtained by subtracting the radioactivity in the blank from the amount of radioactivity in the acceptor of a DMSO group was determined as MTP-mediated TG transfer activity, and it was compared with the value obtained by subtracting the radioactivity in the blank from the radioactivity in a sample group. The blank was prepared by adding 15 mM Tris-HCl buffer (pH 7.4) in place of MTP. Inhibition rate (%) was calculated from the values obtained according to the following equation.
Inhibition rate (%)=100×(1 minus ((radioactivity of sample group minus radioactivity of blank group)/(radioactivity of DMSO group minus radioactivity of blank group))).
50% Inhibition rate (IC50) was determined on the basis of the above equation.
Inhibitory Activity on MTP and apo B Secretion Inhibition by Metabolites
In a similar manner to Test Examples 1 and 2, the activity of metabolites was assayed.

Structure (SMILES)	pIC50 (HepG2 cells)	pIC50 [1]	inhibition in vivo at 3 mg/kg (Syrian hamsters)
CCC(=O)N[C@H](COC(=O)Cc1ccc(NC(=O)c2ccccc2-c2ccc(C(F)(F)F)cc2)c(C(=O)N(C)C)c1)c1ccccc1 [Example 2-25]	8.20	–	55%
CCNC(=O)C(CCOC(=O)c1ccc(NC(=O)c2ccccc2-c2ccc(C(F)(F)F)cc2)cc1)(C(=O)NCC)c1ccccc1 [Example 6-19]	7.46	8.49	–
CCNC(=O)C(CCOC(=O)c1ccc(OC(=O)c2ccccc2-c2ccc(C(F)(F)F)cc2)cc1)(C(=O)NCC)c1ccccc1 [Example 6-21]	6.04	8.01	–
O=C(N[C@H]1CC[C@H](C(=O)OCCC2(C(=O)NCC(F)(F)F)c3ccccc3-c3ccccc32)CC1)c1ccccc1-c1ccc(C(F)(F)F)cc1 [Example 7, Trans-4-[(4′-trifluoromethylbiphenyl-2-carbonyl)amino]cyclohexanecarboxylic acid 2-[9-(2,2,2-trifluoroethylcarbamoyl)-9H-fluoren-9-yl]ethyl ester]	7.22	8.30	–
O=C(N[C@H]1CC[C@@H](C(=O)OCCC2(C(=O)NCC(F)(F)F)c3ccccc3-c3ccccc32)CC1)c1ccccc1-c1ccc(C(F)(F)F)cc1 [Example 7-2]	7.59	8.61	–
CCOC(=O)C(CCOC(=O)C1CCC(NC(=O)c2ccccc2-c2ccc(C(F)(F)F)cc2)CC1)(C(=O)OCC)c1ccccc1 (centres unmarked) [Example 7-5]	6.63	7.79	–
CCOC(=O)C(COC(=O)CN1CCC(NC(=O)c2ccccc2-c2ccc(C(F)(F)F)cc2)CC1)(C(=O)OCC)c1ccccc1 [Example 8, 2-Phenyl-2-(2-{4-[(4′-trifluoromethylbiphenyl-2-carbonyl)amino]piperidin-1-yl}acetoxymethyl)malonic acid diethyl ester]	6.23	7.48	–
CCOC(=O)C(COC(=O)Cn1ccc2c(NC(=O)c3ccccc3-c3ccc(C(F)(F)F)cc3)cccc21)(C(=O)OCC)c1ccccc1 [Example 9, 2-Phenyl-2-(2-{4-[(4′-trifluoromethylbiphenyl-2-carbonyl)amino]indol-1-yl}acetoxymethyl)malonic acid diethyl ester]	6.59	7.96	–
CCOC(=O)C(COC(=O)Cn1c(C)nc2c(NC(=O)c3ccccc3-c3ccc(C(F)(F)F)cc3)cccc21)(C(=O)OCC)c1ccccc1 [Example 9-2, 2-(2-{2-methyl-4-[(4′-trifluoromethylbiphenyl-2-carbonyl}amino]benzimidazol-1-yl}acetoxymethyl)-2-phenyl-malonic acid diethyl ester]	6.35	8.38	–

More lines, main results first:

pIC50 (HepG2 cells)	pIC50 [1]	Structure (SMILES)	inhibition in vivo at 3 mg/kg (Syrian hamsters)
9.00	–	CCNC(=O)C(COC(=O)Cc1ccc(NC(=O)c2ccccc2-c2ccc(C(F)(F)F)cc2)c(C(=O)N(CC)CC)c1)(C(=O)NCC)c1ccccc1 [Example 2-8]	89%
9.13	–	CCOC(=O)C(COC(=O)Cc1ccc(NC(=O)c2ccccc2-c2ccc(C(F)(F)F)cc2)c(C(=O)N(C)CC)c1)(C(=O)OCC)c1ccccc1 [Example 2-13]	70%
8.92	–	CCNC(=O)C(COC(=O)Cc1ccc(NC(=O)c2ccccc2-c2ccc(C(F)(F)F)cc2)c(C(=O)N(C)CC)c1)(C(=O)NCC)c1ccccc1 [Example 2-14]	80%
9.28	–	CCNC(=O)C(CCOC(=O)Cc1ccc(NC(=O)c2ccccc2-c2ccc(C(F)(F)F)cc2)c(C(=O)N(C)CC)c1)(C(=O)NCC)c1ccccc1 [Example 2-15]	81%
9.16	–	CCCN(C)C(=O)c1cc(CC(=O)OCC(C(=O)OCC)(C(=O)OCC)c2ccccc2)ccc1NC(=O)c1ccccc1-c1ccc(C(F)(F)F)cc1 [Example 2-18]	58%
9.44	–	CCOC(=O)C(COC(=O)Cc1ccc(NC(=O)c2ccc(C)cc2-c2ccc(C(F)(F)F)cc2)c(C(=O)N(C)C)c1)(C(=O)OCC)c1ccccc1 [Example 2-48]	87%
6.68	7.70	CCOC(=O)C(COC(=O)Cn1cnc2c(NC(=O)c3ccccc3-c3ccc(C(F)(F)F)cc3)cccc21)(C(=O)OCC)c1ccccc1 [Example 9-11]	–
